# Assay results reported in article PMC4509728, “Crystal Structures Reveal that the Reaction Mechanism of Imidazoleglycerol-Phosphate Dehydratase Is Controlled by Switching Mn(II) Coordination” (Structure(London, England:1993), 2015).
# Molecular target: T1, IGPD2 (construct B) (Arabidopsis thaliana, UniProt O23346, E73Q)
# T1 construct: gene HISN5B; construct B, residues 69-272, signal peptide removed and further N-terminal truncation; pET24a, E. coli BL21(DE3); homo 24mer, site formed by three chains
# T1 sequence (O23346 69-272 E73Q): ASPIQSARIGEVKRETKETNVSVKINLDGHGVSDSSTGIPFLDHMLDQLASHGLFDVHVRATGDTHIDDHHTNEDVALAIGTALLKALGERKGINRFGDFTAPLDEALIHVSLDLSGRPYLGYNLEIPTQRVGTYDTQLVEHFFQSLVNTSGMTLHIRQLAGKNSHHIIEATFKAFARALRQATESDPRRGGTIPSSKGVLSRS
# Assay: X-ray crystallography of the co-crystal ([…] Å form A)
# Type: binding
# Settings: inactive mutant, Mn(II), mixed occupancy with 2R3S IGP at the same site
structure (smiles),measurement,value
O=P(O)(O)OC[C@H](O)[C@@H](O)c1cnc[nH]1 [2S3S diastereoisomer of IGP],X-ray crystallography of the co-crystal (1.12 Å form A),Both diastereoisomers bind at the same site
